Results as given in ChEMBL document CHEMBL4507278 (2021).

How the values were obtained:
[1] = tested on: Tyrosine-protein kinase ABL1 (Homo sapiens), P00519 [F317L]; conditions: Compound concentration 1000.0 nM
[2] = target: Tyrosine-protein kinase ABL2 (Homo sapiens) (UniProt P42684); conditions: Compound concentration 1000.0 nM
[3] = target: Activin receptor type-2A (Homo sapiens) (UniProt P27037); conditions: Compound concentration 1000.0 nM
[4] = target: Activin receptor type-2B (Homo sapiens) (UniProt Q13705); conditions: Compound concentration 1000.0 nM
[5] = target: Bone morphogenetic protein receptor type-1B (Homo sapiens) (UniProt O00238); conditions: Compound concentration 1000.0 nM
[6] = target: Mitotic checkpoint serine/threonine-protein kinase BUB1 (Homo sapiens) (UniProt O43683); conditions: Compound concentration 1000.0 nM
[7] = target: Calcium/calmodulin-dependent protein kinase type II subunit alpha (Homo sapiens) (UniProt Q9UQM7); conditions: Compound concentration 1000.0 nM
[8] = target: Dual specificity tyrosine-phosphorylation-regulated kinase 1A (Homo sapiens) (UniProt Q13627); conditions: Compound concentration 1000.0 nM
[9] = tested on: Epidermal growth factor receptor (Homo sapiens), P00533 [T790M]; conditions: Compound concentration 1000.0 nM
[10] = target: Eukaryotic translation initiation factor 2-alpha kinase 1 (Homo sapiens) (UniProt Q9BQI3); conditions: Compound concentration 1000.0 nM
[11] = target: Ephrin type-A receptor 2 (Homo sapiens) (UniProt P29317); conditions: Compound concentration 1000.0 nM
Chain of Ephrin type-A receptor 2 (Homo sapiens) (P29317 whole entry): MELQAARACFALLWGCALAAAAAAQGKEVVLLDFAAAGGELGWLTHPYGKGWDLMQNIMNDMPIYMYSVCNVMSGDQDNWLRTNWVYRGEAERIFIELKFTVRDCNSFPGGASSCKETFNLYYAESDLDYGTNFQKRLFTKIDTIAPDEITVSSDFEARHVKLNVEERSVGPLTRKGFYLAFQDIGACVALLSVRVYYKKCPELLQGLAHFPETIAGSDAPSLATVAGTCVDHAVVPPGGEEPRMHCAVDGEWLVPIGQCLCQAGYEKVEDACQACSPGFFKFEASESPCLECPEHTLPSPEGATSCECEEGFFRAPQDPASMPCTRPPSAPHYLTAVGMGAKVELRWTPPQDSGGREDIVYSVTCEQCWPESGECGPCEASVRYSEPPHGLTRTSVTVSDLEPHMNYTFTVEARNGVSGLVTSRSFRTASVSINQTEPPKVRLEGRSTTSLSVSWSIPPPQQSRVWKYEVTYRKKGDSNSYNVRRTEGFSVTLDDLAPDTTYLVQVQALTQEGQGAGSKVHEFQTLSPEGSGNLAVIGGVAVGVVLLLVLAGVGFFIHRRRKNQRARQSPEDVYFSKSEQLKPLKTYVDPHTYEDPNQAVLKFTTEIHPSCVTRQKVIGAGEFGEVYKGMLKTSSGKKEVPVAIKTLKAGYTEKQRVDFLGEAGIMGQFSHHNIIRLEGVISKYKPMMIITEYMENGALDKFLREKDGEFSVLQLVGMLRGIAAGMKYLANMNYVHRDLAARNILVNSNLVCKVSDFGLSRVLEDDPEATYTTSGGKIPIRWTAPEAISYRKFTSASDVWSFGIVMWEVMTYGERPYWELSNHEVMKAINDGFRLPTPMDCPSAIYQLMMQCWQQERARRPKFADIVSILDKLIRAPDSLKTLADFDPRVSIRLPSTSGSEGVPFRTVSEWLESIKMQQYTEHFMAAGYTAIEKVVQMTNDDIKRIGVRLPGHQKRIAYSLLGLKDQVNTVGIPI

[12] = target: Ephrin type-A receptor 3 (Homo sapiens) (UniProt P29320); conditions: Compound concentration 1000.0 nM
[13] = target: Tyrosine-protein kinase Fgr (Homo sapiens) (UniProt P09769); conditions: Compound concentration 1000.0 nM
Chain of Tyrosine-protein kinase Fgr (Homo sapiens) (P09769 2-529 limits assumed): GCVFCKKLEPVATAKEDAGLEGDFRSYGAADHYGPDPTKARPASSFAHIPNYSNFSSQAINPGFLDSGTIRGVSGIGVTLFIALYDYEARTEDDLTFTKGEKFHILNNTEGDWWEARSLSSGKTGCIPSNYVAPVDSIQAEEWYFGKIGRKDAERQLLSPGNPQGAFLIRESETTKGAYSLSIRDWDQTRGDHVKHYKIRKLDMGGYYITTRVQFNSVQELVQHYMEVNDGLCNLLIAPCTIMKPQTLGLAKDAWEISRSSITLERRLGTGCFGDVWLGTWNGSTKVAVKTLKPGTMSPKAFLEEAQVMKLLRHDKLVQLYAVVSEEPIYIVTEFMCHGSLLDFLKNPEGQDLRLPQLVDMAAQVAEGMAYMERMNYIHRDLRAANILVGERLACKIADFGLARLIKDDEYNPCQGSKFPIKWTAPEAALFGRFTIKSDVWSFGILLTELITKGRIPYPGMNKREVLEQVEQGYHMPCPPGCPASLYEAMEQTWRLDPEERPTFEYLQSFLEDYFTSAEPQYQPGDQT

[14] = tested on: Receptor-type tyrosine-protein kinase FLT3 (Homo sapiens), P36888 [D835Y]; conditions: Compound concentration 1000.0 nM
[15] = tested on: Receptor-type tyrosine-protein kinase FLT3 (Homo sapiens), P36888 [UNDEFINED MUTATION]; conditions: Compound concentration 1000.0 nM
[16] = tested on: Receptor-type tyrosine-protein kinase FLT3 (Homo sapiens), P36888 [K663Q]; conditions: Compound concentration 1000.0 nM
[17] = target: Insulin receptor (Homo sapiens) (UniProt P06213); conditions: Compound concentration 1000.0 nM
[18] = target: MAP/microtubule affinity-regulating kinase 4 (Homo sapiens) (UniProt Q96L34); conditions: Compound concentration 1000.0 nM
[19] = target: Dual specificity mitogen-activated protein kinase kinase 7 (Homo sapiens) (UniProt O14733); conditions: Compound concentration 1000.0 nM
[20] = target: Serine/threonine-protein kinase Nek1 (Homo sapiens) (UniProt Q96PY6); conditions: Compound concentration 1000.0 nM
[21] = target: Serine/threonine-protein kinase PAK 5 (Homo sapiens) (UniProt Q9P286); conditions: Compound concentration 1000.0 nM
[22] = target: Cyclin-dependent kinase 16 (Homo sapiens) (UniProt Q00536); conditions: Compound concentration 1000.0 nM
[23] = target: Cyclin-dependent kinase 2 homolog (Plasmodium falciparum (isolate 3D7)) (UniProt P61075); conditions: Compound concentration 1000.0 nM
Chain of Cyclin-dependent kinase 2 homolog (Plasmodium falciparum (isolate 3D7)) (P61075 whole entry, the tested form may be a part): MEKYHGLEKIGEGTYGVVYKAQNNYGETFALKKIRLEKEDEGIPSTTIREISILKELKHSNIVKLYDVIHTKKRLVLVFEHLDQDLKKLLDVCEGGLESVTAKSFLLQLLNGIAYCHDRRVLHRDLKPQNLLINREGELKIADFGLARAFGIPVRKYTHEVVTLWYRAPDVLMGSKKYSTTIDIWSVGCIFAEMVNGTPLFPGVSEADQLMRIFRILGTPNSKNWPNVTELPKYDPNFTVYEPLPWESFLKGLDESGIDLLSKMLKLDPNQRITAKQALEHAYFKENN

[24] = target: Phosphatidylinositol 3-kinase C2 domain-containing subunit gamma (Homo sapiens) (UniProt O75747); conditions: Compound concentration 1000.0 nM
[25] = target: Serine/threonine-protein kinase N2 (Homo sapiens) (UniProt Q16513); conditions: Compound concentration 1000.0 nM
Chain of Serine/threonine-protein kinase N2 (Homo sapiens) (Q16513 whole entry, looked up): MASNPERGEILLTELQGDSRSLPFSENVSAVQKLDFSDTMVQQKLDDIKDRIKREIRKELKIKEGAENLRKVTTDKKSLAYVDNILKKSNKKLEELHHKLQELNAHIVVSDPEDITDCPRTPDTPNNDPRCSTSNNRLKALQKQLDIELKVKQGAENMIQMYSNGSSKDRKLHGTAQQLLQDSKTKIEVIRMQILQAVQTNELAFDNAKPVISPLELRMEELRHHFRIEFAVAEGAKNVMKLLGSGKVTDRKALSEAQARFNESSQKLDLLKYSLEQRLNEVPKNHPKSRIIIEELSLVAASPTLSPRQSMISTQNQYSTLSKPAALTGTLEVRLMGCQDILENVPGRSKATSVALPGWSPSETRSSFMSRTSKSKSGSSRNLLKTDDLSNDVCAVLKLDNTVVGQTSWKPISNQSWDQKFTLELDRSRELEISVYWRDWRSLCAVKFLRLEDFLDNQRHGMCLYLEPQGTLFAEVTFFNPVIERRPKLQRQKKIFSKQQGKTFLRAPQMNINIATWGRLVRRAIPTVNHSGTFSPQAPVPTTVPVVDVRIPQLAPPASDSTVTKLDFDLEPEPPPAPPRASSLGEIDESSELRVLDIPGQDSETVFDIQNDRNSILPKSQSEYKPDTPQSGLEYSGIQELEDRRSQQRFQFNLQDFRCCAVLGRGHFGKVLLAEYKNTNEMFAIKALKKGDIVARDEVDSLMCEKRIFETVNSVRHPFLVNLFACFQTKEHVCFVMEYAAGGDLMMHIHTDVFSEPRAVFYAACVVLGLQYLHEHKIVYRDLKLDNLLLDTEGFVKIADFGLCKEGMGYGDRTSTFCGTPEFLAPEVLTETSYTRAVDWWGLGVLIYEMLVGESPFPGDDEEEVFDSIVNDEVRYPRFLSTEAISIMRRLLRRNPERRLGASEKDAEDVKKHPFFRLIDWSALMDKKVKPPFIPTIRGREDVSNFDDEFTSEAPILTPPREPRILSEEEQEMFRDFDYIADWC

[26] = target: Protein kinase C eta type (Homo sapiens) (UniProt P24723); conditions: Compound concentration 1000.0 nM
Chain of Protein kinase C eta type (Homo sapiens) (P24723 whole entry): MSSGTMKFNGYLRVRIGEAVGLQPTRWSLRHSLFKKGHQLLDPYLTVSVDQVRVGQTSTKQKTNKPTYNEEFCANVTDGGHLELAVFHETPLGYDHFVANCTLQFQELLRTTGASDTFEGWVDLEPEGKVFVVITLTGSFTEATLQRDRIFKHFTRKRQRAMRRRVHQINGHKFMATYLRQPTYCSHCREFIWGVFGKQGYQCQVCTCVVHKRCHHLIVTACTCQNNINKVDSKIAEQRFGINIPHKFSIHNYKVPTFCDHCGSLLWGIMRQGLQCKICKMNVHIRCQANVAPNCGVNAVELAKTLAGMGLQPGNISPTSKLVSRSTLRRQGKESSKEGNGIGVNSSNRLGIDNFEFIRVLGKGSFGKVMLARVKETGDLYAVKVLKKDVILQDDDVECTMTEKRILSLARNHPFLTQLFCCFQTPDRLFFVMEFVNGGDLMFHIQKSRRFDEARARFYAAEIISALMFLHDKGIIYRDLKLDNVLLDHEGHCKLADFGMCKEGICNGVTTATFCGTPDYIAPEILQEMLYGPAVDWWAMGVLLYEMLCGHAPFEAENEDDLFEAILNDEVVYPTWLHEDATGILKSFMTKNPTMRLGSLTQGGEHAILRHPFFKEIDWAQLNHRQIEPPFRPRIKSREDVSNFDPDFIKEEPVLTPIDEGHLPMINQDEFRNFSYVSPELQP

[27] = tested on: Proto-oncogene tyrosine-protein kinase receptor Ret (Homo sapiens), P07949 [M918T]; conditions: Compound concentration 1000.0 nM
[28] = target: Ribosomal protein S6 kinase alpha-5 (Homo sapiens) (UniProt O75582); conditions: Compound concentration 1000.0 nM
[29] = target: Serine/threonine-protein kinase SBK1 (Homo sapiens) (UniProt Q52WX2); conditions: Compound concentration 1000.0 nM
[30] = target: Serine/threonine-protein kinase Sgk3 (Homo sapiens) (UniProt Q96BR1); conditions: Compound concentration 1000.0 nM
Chain of Serine/threonine-protein kinase Sgk3 (Homo sapiens) (Q96BR1 whole entry): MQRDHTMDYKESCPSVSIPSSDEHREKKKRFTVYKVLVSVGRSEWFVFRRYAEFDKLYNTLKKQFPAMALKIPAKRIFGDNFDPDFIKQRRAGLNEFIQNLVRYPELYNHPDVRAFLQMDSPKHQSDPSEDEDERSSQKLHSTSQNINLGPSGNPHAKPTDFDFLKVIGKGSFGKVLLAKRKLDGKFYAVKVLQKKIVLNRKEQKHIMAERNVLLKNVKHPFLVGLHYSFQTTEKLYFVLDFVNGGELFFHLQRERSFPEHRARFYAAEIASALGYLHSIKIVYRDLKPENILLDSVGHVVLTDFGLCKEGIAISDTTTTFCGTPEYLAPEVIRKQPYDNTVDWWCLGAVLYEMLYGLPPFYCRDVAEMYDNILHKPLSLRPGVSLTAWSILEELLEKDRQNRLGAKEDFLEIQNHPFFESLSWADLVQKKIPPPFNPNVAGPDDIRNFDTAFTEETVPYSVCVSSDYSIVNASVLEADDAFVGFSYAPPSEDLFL

[31] = target: Serine/threonine-protein kinase SIK1 (Homo sapiens) (UniProt P57059); conditions: Compound concentration 1000.0 nM
[32] = target: Dual specificity protein kinase TTK (Homo sapiens) (UniProt P33981); conditions: Compound concentration 1000.0 nM
[33] = target: 5-hydroxytryptamine receptor 1D (Homo sapiens) (UniProt P28221); conditions: Compound concentration 10.0 uM
Chain of 5-hydroxytryptamine receptor 1D (Homo sapiens) (P28221 whole entry): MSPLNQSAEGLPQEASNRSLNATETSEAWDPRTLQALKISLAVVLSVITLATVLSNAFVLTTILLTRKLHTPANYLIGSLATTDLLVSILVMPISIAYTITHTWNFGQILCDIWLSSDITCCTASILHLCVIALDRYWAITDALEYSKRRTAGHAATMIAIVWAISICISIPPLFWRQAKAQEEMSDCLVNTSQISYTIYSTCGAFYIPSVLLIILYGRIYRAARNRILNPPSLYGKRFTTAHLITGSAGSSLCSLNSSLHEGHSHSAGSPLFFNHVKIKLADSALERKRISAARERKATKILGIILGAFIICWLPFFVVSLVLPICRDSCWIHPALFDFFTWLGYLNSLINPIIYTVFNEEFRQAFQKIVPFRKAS

[34] = target: 5-hydroxytryptamine receptor 2B (Homo sapiens) (UniProt P41595); conditions: Compound concentration 10.0 uM
[35] = target: D(2) dopamine receptor (Homo sapiens) (UniProt P14416); conditions: Compound concentration 10.0 uM
Chain of D(2) dopamine receptor (Homo sapiens) (P14416 whole entry): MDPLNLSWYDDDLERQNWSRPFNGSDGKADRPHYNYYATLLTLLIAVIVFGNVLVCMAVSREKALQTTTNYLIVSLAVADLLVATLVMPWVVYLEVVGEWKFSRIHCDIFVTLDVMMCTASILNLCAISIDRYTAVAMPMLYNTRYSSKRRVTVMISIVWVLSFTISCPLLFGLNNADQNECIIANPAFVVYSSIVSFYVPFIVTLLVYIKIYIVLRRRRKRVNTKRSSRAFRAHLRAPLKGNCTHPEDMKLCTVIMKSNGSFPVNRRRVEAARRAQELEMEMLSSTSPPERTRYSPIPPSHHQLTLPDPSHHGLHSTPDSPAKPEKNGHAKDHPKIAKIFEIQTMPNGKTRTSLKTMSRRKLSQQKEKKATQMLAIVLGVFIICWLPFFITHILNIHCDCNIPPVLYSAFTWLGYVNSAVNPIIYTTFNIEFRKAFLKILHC

[36] = target: Muscarinic acetylcholine receptor M4 (Homo sapiens) (UniProt P08173); conditions: Compound concentration 10.0 uM
[37] = target: T1, Alpha-1D adrenergic receptor (Homo sapiens) (UniProt P25100); conditions: Compound concentration 10.0 uM
T1 sequence (whole entry): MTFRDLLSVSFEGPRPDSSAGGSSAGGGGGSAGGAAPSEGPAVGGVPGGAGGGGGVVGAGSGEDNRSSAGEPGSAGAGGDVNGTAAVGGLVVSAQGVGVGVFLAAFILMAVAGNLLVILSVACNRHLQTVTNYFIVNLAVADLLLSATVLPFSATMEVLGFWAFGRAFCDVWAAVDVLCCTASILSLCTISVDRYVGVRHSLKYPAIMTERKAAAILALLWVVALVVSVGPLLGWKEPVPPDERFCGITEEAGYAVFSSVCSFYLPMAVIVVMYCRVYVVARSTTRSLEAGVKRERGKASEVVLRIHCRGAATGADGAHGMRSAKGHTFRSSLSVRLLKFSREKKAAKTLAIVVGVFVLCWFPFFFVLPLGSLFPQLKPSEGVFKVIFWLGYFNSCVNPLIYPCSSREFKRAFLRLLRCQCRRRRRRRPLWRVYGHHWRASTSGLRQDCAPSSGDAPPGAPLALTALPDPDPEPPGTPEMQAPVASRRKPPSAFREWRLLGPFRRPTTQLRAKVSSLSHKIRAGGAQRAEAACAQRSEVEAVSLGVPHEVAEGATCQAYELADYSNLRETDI

SMILES	residual activity [1] [%]	residual activity [2] [%]	residual activity [3] [%]	residual activity [4] [%]	residual activity [5] [%]	residual activity [6] [%]	residual activity [7] [%]	residual activity [8] [%]	residual activity [9] [%]	residual activity [10] [%]	residual activity [11] [%]	residual activity [12] [%]	residual activity [13] [%]	residual activity [14] [%]	residual activity [15] [%]	residual activity [16] [%]	residual activity [17] [%]	residual activity [18] [%]	residual activity [19] [%]	residual activity [20] [%]	also measured
CS(=O)(=O)NCC[C@H](NC(=O)c1cncc2c1cnn2-c1ccc(F)cc1)c1ccnc(S(C)(=O)=O)c1 [BI 9307]	100	93	81	90	100	100	100	100	90	100	100	87	100	97	100	100	92	78	100	45	residual activity [21]: 99%; residual activity [22]: 100%; residual activity [23]: 100%; residual activity [24]: 86%; residual activity [25]: 100%; residual activity [26]: 80%; residual activity [27]: 100%; residual activity [28]: 88%; residual activity [29]: 96%; residual activity [30]: 100%; residual activity [31]: 100%; residual activity [32]: 91%; inhibition [33]: 38.9%; inhibition [34]: -5.9%; inhibition [35]: -5.26%; inhibition [36]: 10.8%; inhibition [37]: -9.49%
CS(=O)(=O)c1cc(C2(NC(=O)c3cncc4c3cnn4-c3ccc(F)cc3)CC2)ccn1 [BI 639667]	100	95	98	100	82	85	100	81	100	73	100	90	100	98	70	100	100	100	91	45	residual activity [21]: 100%; residual activity [22]: 94%; residual activity [23]: 100%; residual activity [24]: 93%; residual activity [25]: 100%; residual activity [26]: 100%; residual activity [27]: 100%; residual activity [28]: 100%; residual activity [29]: 95%; residual activity [30]: 100%; residual activity [31]: 100%; residual activity [32]: 90%; inhibition [33]: 14.5%; inhibition [34]: 22.1%; inhibition [35]: 6.62%; inhibition [36]: 13.3%; inhibition [37]: -7.67%
